According to PMC7465886, “4-(N-Alkyl- and -Acyl-amino)-1,2,4-triazole-3-thione Analogs as Metallo-β-Lactamase Inhibitors: Impact of 4-Linker on Potency and Spectrum of Inhibition” (Biomolecules, 2020):

Molecular target: T1, VIM-1 (Pseudomonas aeruginosa, UniProt A0A0F7KYQ8)
T1 construct: made in house; host or cells: E. coli BL21(DE3) derivative, pET-9a
Experiment: MBL inhibition, reporter substrate method, VIM-1
Assay type: biochemical
Settings: read-out: Inhibition of VIM-1 (dash)
Method: Compounds were prepared in DMSO at a final concentration of 50 mM prior to dilution in the assay buffer. The reaction rate was measured as the variation of absorbance observed upon substrate hydrolysis in a UV-Vis spectrophotometer or microplate reader at a wavelength of 300 nm (imipenem, meropenem), 260 nm (cefotaxime), or 482 nm (nitrocefin) and in the presence of a purified MBL enzyme (such as VIM-1, VIM-2, VIM-4, NDM-1, and IMP-1, at a final concentration ranging from 1 to 70 nM).
These enzymes were overproduced in derivatives of E. coli BL21(DE3) carrying a pET-9 a (IMP-1, VIM-1, VIM-2, and VIM-4) or pET-15 b (NDM-1) vector into which the metallo-β-lactamase-encoding open reading frame was cloned. Bacterial strains were grown in the auto-inducing medium, ZYP-5052, supplemented with 50 μg/mL kanamycin for 24 h at 37 °C [38]. IMP-1, VIM-1, VIM-2, and VIM-4 were purified by ion-exchange and gel filtration chromatography using an AKTA Purifier platform (GE Healthcare, Uppsala, Sweden) as previously described. NDM-1 (residues 37-270) was produced as an amino-terminal 6 xHis-tag fusion protein and was purified using affinity chromatography. After growth for 26 h at 25 °C, bacterial cells were harvested by centrifugation (10,000× g, 30 min, 4 °C), resuspended in 10 mM HEPES buffer (pH 7.5) containing 0.15 M NaCl (buffer A) in one-fifth of the original culture volume, and lysed by sonication. Cellular debris was removed by centrifugation (12,000× g, 40 min, 4 °C). The clarified sample was loaded on a HisTrap HP column (bed volume, 5 mL; GE Healthcare), followed by a wash step (25 mL) with buffer A containing 20 mM imidazole. Proteins were eluted using buffer A containing 350 mM imidazole. The resulting protein sample was desalted (HiPrep 26/10 Desalting column, GE Healthcare) using 20 mM triethanolamine (pH 7.2) supplemented with 50 μM ZnSO4 and concentrated using an Amicon Ultra-15 (MW cut-off, 10 kDa; Millipore, Burlington, MA, USA). The concentrated sample was loaded on a Superdex 75 prep grade column (XK16/100 column; bed volume, 140 mL; GE Healthcare) and the proteins eluted with buffer A containing 50 μM ZnSO4. The active fractions were pooled and stored at −20 °C. The purity of the protein preparations was estimated >95% by SDS-PAGE analysis. The authenticity of the enzyme preparations was confirmed by electron spray ionization mass spectrometry, as previously described.
The inhibition constants (Ki) were determined on the basis of a model of competitive inhibition by analyzing the dependence of the ratio v0/vi (v0, hydrolysis velocity in the absence of inhibitor; vi, hydrolysis velocity in the presence of inhibitor) as a function of [I] as already described. The slope of the plot of v0/vi vs. [I], which corresponds to Km^S/(Km^S + [S])Ki (where Km^S is the Km value of the reporter substrate and [S] its concentration in the reaction mixture) and allowed the calculation of the Ki value. Alternatively, a Dixon plot analysis was carried out by measuring the initial hydrolysis rates in the presence of variable concentrations of inhibitor and substrate. This allowed Ki values to be determined and supported the hypothesis that the various compounds behaved as competitive inhibitors of the various tested enzymes. The assays were performed in triplicate.

O=C(O)c1ccccc1CNn1c(-c2ccccc2)n[nH]c1=S [Compound 1]
inhibition at 100 µM: < 30%
